Measured values published in paper PMC5729429, “Gimatecan exerts potent antitumor activity against gastric cancer in vitro and in vivo via AKT and MAPK signaling pathways” (Journal of Translational Medicine, 2017).
Counter-ions that a name gives are not always drawn.

Tested on: SNU-1 cells
Assay: Annexin V-PE/7-AAD apoptosis assay (flow cytometry), SNU-1
Format: cell-based, human
Details: 24 h
Experimental: Apoptosis was measured by staining with phycoerythrin (PE)-annexin V and 7-amino-actinomycin (7-AAD) (BD Biosciences, Erembodegem, Belgium) for 15 min at room temperature in the dark, followed by flow cytometry (BD Biosciences) within 1 h. Apoptosis was analyzed with FlowJo 7.6 software (FlowJo, LLC, Ashland, Oregon).
Cells were treated with gimatecan (0–1 µM) and irinotecan (0–1 µM) for 24 h and stained with Annexin V-PE/7-AAD. Sums of percentages of early apoptosis (Q3) and late apoptosis (Q2) were calculated as the total apoptosis ratios. c, d Pro- and anti-apoptotic proteins including Bcl-2, Bak, PARP and cleaved PARP were assessed by western-blotting in SNU-1 and NCI-N87 cells. Western-blotting bands were quantified and normalized by ImageJ. […] They are left out because no substance is present, and they are also barely readable.

Compound	proportion of apoptotic cells (SNU-1, 1000 nM)	apoptosis induced compared with controls (0–1 µM, stated generally for the GC cell lines tested)
CC[C@@]1(O)C(=O)OCc2c1cc1n(c2=O)Cc2c-1nc1ccccc1c2/C=N/OC(C)(C)C [Gimatecan, 7-t-butoxyiminomethylcamptothecin]	14.38 ± 2.11%	
CCc1c2c(nc3ccc(OC(=O)N4CCC(N5CCCCC5)CC4)cc13)-c1cc3c(c(=O)n1C2)COC(=O)[C@]3(O)CC [Irinotecan, irinotecan hydrochloride]		not obvious
